# According to patent publication US11225505B2, “Antimicrobial polymyxin derivative compounds” (MONASH UNIVERSITY, priority 2015, dated 2022):
# Where a SMILES comes first, the peptide text is derived from it. Bridges are numbered along the chain shown (N, C = ends). [ ]: non-standard residue; d: D form. The star is where a group is joined. X1 = O=C(c1ncc(Cl)cc1Cl)*; Dab = NCC[C@H](N)C(=O)O; Abu = CC[C@H](N)C(=O)O; Dap = NC[C@H](N)C(=O)O
# Key:
# Assay type in all cases: cell-based
# [1] = test system: Acinetobacter baumannii FADDI-AB030; experiment: microbe, parasite or virus in culture; details: FADDI-AB030
# In short: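 Broth microdilution MIC in cation-adjusted Mueller-Hinton broth per CLSI M100-S24; lipopeptides tested as TFA salts. FADDI-AB030 is a multidrug-resistant clinical isolate. Polymyxin B sulphate served as control.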
# [2] = test system: Enterobacter cloacae FADDI-EC003; details: FADDI-EC003
# In short: (§1)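 The read-out is the MIC, obtained by CLSI broth microdilution (M100-S24) in cation-adjusted Mueller-Hinton broth. The compounds were lipopeptide TFA salts, and polymyxin B sulphate served as control.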
# [3] = test system: Pseudomonas aeruginosa FADDI-PA038; details: FADDI-PA038
# In short: as §1
# [4] = test system: Pseudomonas aeruginosa ATCC 27853; details: ATCC 27853
# In short: as §1
# [5] = test system: Enterobacter cloacae FADDI-EC006; details: FADDI-EC006
# In short: as §1
# [6] = test system: Klebsiella pneumoniae FADDI-KP032; details: FADDI-KP032
# In short: as §1
# [7] = test system: Pseudomonas aeruginosa FADDI-PA01; details: FADDI-
# In short: as §1
# [8] = test system: Enterobacter cloacae FADDI-EC001; details: FADDI-EC001
# In short: (§2)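 MICs were determined by broth microdilution in cation-adjusted Mueller-Hinton broth following the CLSI M100-S24 protocol. Lipopeptides were tested as trifluoroacetic acid salts against polymyxin-susceptible Gram-negative strains, with polymyxin B sulphate as control. FADDI-PA022 and FADDI-AB034 are multidrug-resistant clinical isolates.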
# [9] = test system: Acinetobacter baumannii FADDI-AB034; details: FADDI-AB034
# In short: as §1
# [10] = test system: Klebsiella pneumoniae Kp BM1; details: Kp BM1
# In short: as §2
# [11] = test system: Klebsiella pneumoniae FADDI-KP022; details: FADDI-KP022
# In short: as §1
# [12] = test system: Pseudomonas aeruginosa FADDI-PA022; details: FADDI-PA022
# In short: as §1
# [13] = test system: Acinetobacter baumannii ATCC 17978; details: ATCC 17978
# In short: as §1
smiles,measurement,setting,value
CC[C@@H]1NC(=O)[C@@H](CC(C)C)NC(=O)[C@H](CCN)NC(=O)[C@@H](NC(=O)[C@H](CN)NC(=O)[C@@H](NC(=O)[C@H](CCN)NC(=O)c2ncc(Cl)cc2Cl)[C@@H](C)O)CCNC(=O)[C@H]([C@@H](C)O)NC(=O)[C@H](CCN)NC(=O)[C@H](CCN)NC1=O [Compound 1] (X1-[Dab]T[Dap][Dab][Dab][dL][Abu][Dab][Dab]T; lactam 4-C),Minimum inhibitory concentration,[1],1 µg/mL
same,Minimum inhibitory concentration,[2],2 µg/mL
same,Minimum inhibitory concentration,[3],1 µg/mL
same,Minimum inhibitory concentration,[4],0.5 µg/mL
same,Minimum inhibitory concentration,[5],0.5 µg/mL
same,Minimum inhibitory concentration,[6],0.5 µg/mL
same,Minimum inhibitory concentration,[7],0.5 µg/mL
same,Minimum inhibitory concentration,[8],<0.125 µg/mL
same,Minimum inhibitory concentration,[9],2 µg/mL
same,Minimum inhibitory concentration,[10],0.25 µg/mL
same,Minimum inhibitory concentration,[11],<0.125 µg/mL
same,Minimum inhibitory concentration,[12],1 µg/mL
same,Minimum inhibitory concentration,[13],2 µg/mL
